What all share (format): in vivo
Assay [1] deals with Avena fatua. Kind of assay: Greenhouse pre-emergence (PRE) herbicidal test on AVEFA. Particulars: use rate 4 gai/ha. The method in brief: (§1)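 Visual rating on a 0 (normal growth) to 100 (no emergence or above-ground kill) scale at 20 DAT. Treatment was pre-emergence spray of aqueous suspension/emulsion right after sowing into loamy sand with ~3.0% humus; covered until rooted, grown at 10-25° C or 20-35° C depending on species.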

Assay [2] relates to Commelina benghalensis. Kind of assay: Greenhouse post-emergence (POST) herbicidal test on COMBE. Particulars: 480 h, use rate 16 gai/ha, 20 DAT. As to the method:
(§2) The culture containers used were plastic pots containing loamy sand with approximately 3.0% of humus as substrate. The seeds of the test plants were sown separately for each species.
(§3) For the post-emergence treatment, the test plants were grown to a plant height of from 3 to 15 cm, depending on the plant habit, and only then treated with the active compounds which had been suspended or emulsified in water. To this end, the test plants were either sown directly, and grown in the same containers, or they were first grown separately as seedlings and transplanted into the test containers a few days prior to treatment.
(§4) Depending on the species, the plants were kept at 10-25° C. and 20-35° C., respectively.
(§5) The test period extended over 2 to 4 weeks. During this time, the plants were tended and their response to the individual treatments was evaluated.
(§6) Evaluation was carried out using a scale from 0 to 100. 100 means no emergence of the plants, or complete destruction of at least the above-ground parts, and 0 means no damage or normal course of growth. A good herbicidal activity is given at values of at least 70, and very good herbicidal activity is given at values of at least 85.
(§7) If not stated differently, the respective components A and B, and if appropriate, C were formulated as a 5% by weight strength emulsion concentrate and, with addition of the amount of solvent system, introduced into the spray liquor used for applying the active compound.
(§8) As indicated application was either post emergent (POST) at the respective growth stage (GS) of the weed (BBCH code), or pre-emergent (PRE).
(§9) Assessment was 20 days after treatment (DAT).

Assay [3] concerns SETFA. Briefly: Greenhouse pre-emergence (PRE) herbicidal test on SETFA. The conditions noted are these: Setaria faberi, use rate 1 gai/ha.
Assay [4] deals with Polygonum convolvulus. Kind of assay: Greenhouse pre-emergence (PRE) herbicidal test on POLCO. Particulars: Fallopia convolvulus, pre-emergence, use rate 1 gai/ha.
Text: as §2
For the pre-emergence treatment, the active compounds, suspended or emulsified in water, were applied directly after sowing by means of finely distributing nozzles. The containers were irrigated gently to promote germination and growth and subsequently covered with transparent plastic hoods until the plants had rooted. This cover caused uniform germination of the test plants unless this was adversely affected by the active compounds.
as §4, §5, §6, §7, §8, §9

Assay [5] has as its system Commelina benghalensis. Kind of assay: Greenhouse pre-emergence (PRE) herbicidal test on COMBE. The conditions noted are these: Commelina benghalensis, pre-emergence, COMBE PRE. Put shortly: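 Scoring ran from 0 (normal growth) to 100 (no emergence or above-ground parts fully destroyed) and was done 20 DAT. Application was pre-emergent in pots of loamy sand (~3.0% humus) sown per species. Plants grew at 10-25° C or 20-35° C by species.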

Assay [6] concerns Ambrosia artemisiifolia. Kind of assay: Greenhouse pre-emergence (PRE) herbicidal test on AMBEL. The conditions noted are these: Ambrosia artemisiifolia, pre-emergence, 480 h, PRE, AMBEL, use rate 1 gai/ha, 20 DAT.
Assay [7] relates to Brachiaria decumbens. Kind of assay: Greenhouse pre-emergence (PRE) herbicidal test on BRADC. The conditions noted are these: Urochloa decumbens, PRE, BRADC, use rate 1 gai/ha. Put shortly:
as §1

The subject of assay [8] is Ipomoea hederacea. Briefly: Greenhouse pre-emergence (PRE) herbicidal test on IPOHE. Particulars: PRE, IPOHE, 20 DAT. The method in brief:
as §1

Assay [9] deals with Echinochloa crus-galli. Briefly: Greenhouse post-emergence (POST) herbicidal test on ECHCG. The conditions noted are these: Echinochloa crus-galli, post-emergence; for inhibition at 1 g/ha: use rate 1 gai/ha. The method in brief:
(§10)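 For this test, compounds formulated as a 5% by weight emulsion concentrate were diluted into spray liquor and applied post-emergence. Species were kept at 10-25° C or 20-35° C and injury was scored at 20 DAT on a 0–100 scale.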

Assay [10] has as its system Echinochloa crus-galli. Kind of assay: Greenhouse pre-emergence (PRE) herbicidal test on ECHCG. The conditions noted are these: PRE, ECHCG, use rate 2 gai/ha, 20 DAT.
Assay [11] has as its system Amaranthus retroflexus. Kind of assay: Greenhouse post-emergence (POST) herbicidal test on AMARE. Particulars: Amaranthus retroflexus, post-emergence, POST; AMARE; use rate 1 gai/ha. Put shortly:
as §10

The subject of assay [12] is Setaria viridis. Briefly: Greenhouse post-emergence (POST) herbicidal test on SETVI. Particulars: 480 h, 20 DAT. As to the method:
as §2, §3, §4, §5, §6, §7, §8, §9

Where “and” joins values, the source holds several entries; their conditions need not be identical. Equal entries are not always repeated. Where two headings read alike, the source gives them in different places.

Take `COc1c(F)cc(F)c(F)c1Nc1nc(N)nc(C(C)(C)F)n1` [Compound I-1]: the inhibition at 4 g/ha in [1] was 70%; in [5] (use rate 4 gai/ha), 0%; in assay [9] (480 h, POST, ECHCG, use rate 4 gai/ha, 20 DAT) it was 0%; in assay [12] (use rate 4 gai/ha) it was 70%. For the same compound, the inhibition at 16 g/ha in [2] was found to be 75%; in [8] (Ipomoea hederacea, pre-emergence, 480 h, use rate 16 gai/ha), 75%. In addition, the inhibition at 1 g/ha stood at 60% in assay [3]; 50% in assay [4]; 35% in assay [5] (use rate 1 gai/ha); 10% in assay [6]; 0% in assay [7]; 30% in [9] (ECHCG POST, read-out: % activity). Moreover, the inhibition at 1 g/ha stood at 10% in [9] (POST, ECHCG, read-out: % activity) and 50% in assay [11]. The compound further showed an inhibition at 8 g/ha in assay [8] (Ipomoea hederacea, pre-emergence, 480 h, use rate 8 gai/ha) of 70%. In addition, the “% activity” value is 60% in assay [8] (use rate 16 gai/ha); 35% and 65% in [10]. Moreover, the inhibition at 2 g/ha in [9] (POST, ECHCG, use rate 2 gai/ha, read-out: % activity) came to 10%; in [12] (use rate 2 gai/ha) it was 5%.

For the origin of these results see patent US20260007133A1, “HERBICIDAL COMPOSITION COMPRISING AZINE COMPOUNDS” (BASF SE, priority 2022, published 2026).
